“Also recorded” adds a separate entry of the source.
Legend:
Assay type in all cases: in vivo
[1] = test system: adult sand flies (P. argentipes); experiment: Adult sand fly bioassay on cattle given oral fipronil
Description: (§1) The test substance was given to the cattle orally as a single application. The oral treatment was by hand. Because the oral treatment was delivered in capsule form the dosage was very precise.
(§2) The four dose levels of fipronil for the treatment groups used in this study were as follows: 0.5, 1.0, 2.0 and 4.0 mg/kg. These were weighed with an analytical balance to the nearest 0.01 g and presented in gelatin capsules.
A breeding colony of P. argentipes was established during 2009 and is situated in Patna. The colony contains an average of 10,000 sand flies. Adults and larvae are used routinely for studies and are maintained under controlled temperature and humidity conditions.
Adult sand flies used in this study were transferred to a mud plastered hut built next to the cattle shed. This was to acclimate lab-ready sand flies to natural environmental conditions in which the study was to be conducted. The sand flies were kept in 0.4 m^3 cloth mesh enclosures.
Adult sand fly bioassays were conducted on days 1, 3, 5, 7, 14, 21, and 28 after oral administration of fipronil. […] Sand flies were counted and placed in a sand fly feeding capsule (10 cm diameter×2 cm deep). […]
Two sand fly feeding capsules were used per cow. […] Sand flies were allowed to feed for 60 minutes and were monitored closely throughout the feeding period. […]

[2] = test system: adult P. argentipes; experiment: Adult sand fly bioassay, bloodfeeding on fipronil treated B. bengalensis; conditions: for Time after 1 hour exposure to 100% mortality of adult P. argentipes: bloodfeeding 20 days after treatment; for Adult sand fly mortality: across treatment groups
Description: The B. bengalensis fipronil study was conducted in two portions. In the first of the two segments, three randomly selected B. bengalensis were offered a fipronil (250 ppm) treated diet at 25 g daily. One rat served as control and was fed an untreated diet. In the second portion of the study, the remaining animals were randomly divided into two groups of two. Two individuals in the first group were offered 25 g of 100 ppm fipronil-treated feed each and two rats in the second group were each offered 25 g of 50 ppm fipronil-treated diet. One rat served as control and was fed an untreated diet.
Test animals were provided treated feed for two consecutive days. Diets were prepared by utilizing locally available poultry feed treated with technical grade fipronil to predetermined concentrations. Consumption was calculated daily, feed refilled to a predetermined level of 25 g, and feces cleared. At the end of the second day, treated feed was cleared, final consumption weighed, and feed replaced with untreated locally available poultry feed. Feces were collected, noted as day-1 post-treatment and properly stored for use in assays. Observation of test animals continued for twenty days post-treatment, with additional collection of feces for testing conducted 5, 10, and 20 days post-treatment. On days when fecal collection occurred, all newspaper/bedding was replaced at 0800 hours and feces collected at the end of the day for preservation. Collected feces were dried overnight at approximately 40° C., ground into a fine powder with a pestle and mortar and frozen at −20° C. until larval bioassays were initiated.
Adult sand fly bioassays were conducted 1, 5, 10 and 20 days post feed-through treatment of B. bengalensis. B. bengalensis were anesthetized with 15 units of ketamine (KetaJet 50, SterFil Laboratories Pvt. Ltd., Ankleshwar, India) via intramuscular injection. The belly of each rat was shaved using an electric razor and a mesh covered plastic capsule (20 mm diameter, 25 mm height) containing 20 adult female and 5 adult male P. argentipes was affixed to the shaved area with medical tape. The capsules had about 10 small holes burned into the top with a heated 24 gauge needle. Capsules remained in place for one hour, covered with a light cloth to maintain warmth and reduce light. At the end of one hour, the capsules were removed and observations for mortality conducted immediately, at 12 hours post-feeding, and every 24 hours thereafter for up to 5 days post-exposure. Partially fed sand flies were included in analyses as “bloodfed” specimens. Unfed sand flies were removed, and bloodfed sand flies were observed collectively by treatment group.

[3] = test system: P. argentipes 1st instar larvae; experiment: Larval bioassay with feces of insecticide treated R. rattus (feed through)
Description: In the first study, a feed through study comparing diflubenzuron, fipronil, ivermectin, and eprinomectin was conducted on rats (Rattus rattus). Fecal samples were collected after three (3) consecutive days of administration of the trial products. The efficacy of the drugs administered during the blind study underwent testing in larval bioassays with P. argentipes 1st instar larvae. Commercially available chicken feed was mixed with the appropriate concentrations of each insecticide compound and used as is in the trial.
Twelve (12) locally purchased rats (Rattus rattus) of mixed sex were utilized in a small study testing the efficacy of four feed through insecticides. Five treatment groups of two rats each were randomly identified and fed diets consisting of locally available chicken feed treated with one of the following compounds: diflubenzuron (0.048%), fipronil (0.015%), ivermectin (0.025%), and eprinomectin (0.01% and 0.025%). Two rats served as control and were fed only chicken feed. Rats were fed 20 g of their assigned diet daily at the same time, with daily consumption and spillage calculated for a period of three (3) days. Sand fly analyses were conducted simultaneously.
[…] Collected feces were dried at approximately 40° C. in an oven then ground into a fine powder utilizing a pestle and mortar and frozen at −20° C. until larval bioassays were initiated.
Larval bioassay pots were prepared using 48 mm, 100 g round Dibbi jars. Dishes were prepared by burning several small holes into the bottom of the dish with a soldering iron and filling them with a small layer of plaster (¼ to ½ inch depth). Approximately 15-20 holes were punctured into the lids using 24 gauge needles. For simpler mortality counting, pots were quartered and each quadrant numbered using an ultra fine black Sharpie.
For each individual post-treatment bioassays, thirteen (13) dishes were loaded with 10 day old 1st instar P. argentipes larvae; twelve (12) pots were provided with approximately 0.005 g of the treated feces, with two sample pots per treated bandicoot rat, and one overall control sample fed only standard larval diet. See Table 1 for sample/treatment correlations. Larvae were loaded into bioassay pots and provided with their designated treatment sample. Mortality counts of larvae were conducted every 24 hours post-treatment until 100% mortality, or pupation, was reached.

[4] = Cattle dosing, observation for adverse effects; conditions: 0.5, 1.0, 2.0, and 4.0 mg/kg body weight, single oral dose
Description: as §1
The observation period can be extended, if necessary based on drug persistence data and residue analysis. The first day of dose application was designated as day 0.
as §2
Body weights were recorded individually for all animals during randomization, at the beginning of each week (Monday) during the study period, and at the termination of the study.

[5] = feces of R. rattus day-1 post treatment, 150 ppm

## N#Cc1nn(-c2c(Cl)cc(C(F)(F)F)cc2Cl)c(N)c1[S+]([O-])C(F)(F)F (centres unmarked) [fipronil]
[1]; cattle, oral, without having an impact on milk residues
  Level of control of adult sand flies as a systemic: high levels of control were not attainable
[1]; days 14 and 21 post-treatment, one hour exposure to cattle, 0.5-4.0 mg/kg
  Adult sand fly mortality versus dose level: mortality increased with dose level
[2]; bloodfed on rodents treated as much as 20 days previously, all treatment levels
  Mortality of bloodfeeding adult P. argentipes: 100%
[2]; 50 ppm
  Time after 1 hour exposure to 100% mortality of adult P. argentipes: 5 days
[2]; 100 ppm
  Time after 1 hour exposure to 100% mortality of adult P. argentipes: 3 days
[2]; 250 ppm
  Time after 1 hour exposure to 100% mortality of adult P. argentipes: 4 days
[2]; bloodfeeding on rodents 1 day after treatment
  Adult sand fly mortality: 100%
[2]; bloodfeeding on rodents 5 days after treatment
  Adult sand fly mortality: 100%
[2]; day 1, all treatment groups (50 ppm, 100 ppm, and 250 ppm)
  Time to death of adult sand flies: dead by the end of the one hour exposure period
[2]; day 5, 50 ppm treatment group
  Time to 100% mortality of adult sand flies: 24 h
[2]; day 5, 250 and 100 ppm treatment groups
  Time to death of adult sand flies: dead by the end of the one hour exposure period
[3]; [5]
  Mean ± SEM survival (days) of P. arg larvae post-exposure: 2.25 ± 0.10 days
  P. argentipes larvae mortality (%): 100%
[3]; feces of R. rattus fed 0.015% in feed
  Day of observation by which 100% larval mortality was reached: ≤ 3 days
[3]; larvae exposed to feces of fipronil-treated animals
  Time to paralysis of larvae after exposure: ≤ 24 h
[3]; larval P. argentipes, rodent feed through trials
  Speed of mortality and duration of effectiveness compared with the other compounds tested: quickest mortality and longest lasting effectiveness of all of the compounds tested; also recorded: quickest knockdown and longest lasting efficacy of all of the insecticides examined
[4]
  Adverse effect from dosing the cattle: no observed adverse effect

Source: US20170280722A1, “COMPOSITIONS AND METHODS FOR CONTROL OF SAND FLIES AND OTHER BLOOD SUCKING INSECTS” (GENESIS LABORATORIES, INC., priority 2010, published 2017)
